Results taken from US6737383B1, “Herbicidal oxadiazolidines” (priority 1999, dated 2004).

Legend:
arrowleaf sida = test: Test C postemergence arrowleaf sida; assay type: in vivo, Sida rhombifolia; conditions: 0 to 100 scale, 0 no effect, 100 complete control
How it was run: (§1)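 Postemergence spray; formulation = non-phytotoxic solvent + surfactant; soil 60:40 sandy loam:greenhouse potting mix; greenhouse, ~14–21 d; visual rating vs untreated, 0–100 (100 = complete control).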

cotton = test: Test C postemergence cotton; assay type: in vivo, Gossypium hirsutum; conditions: 0 to 100 scale, 0 no effect, 100 complete control
How it was run: as §1

field bindweed = test: Test C postemergence field bindweed; assay type: in vivo, Convolvulus arvensis; conditions: 0 to 100 scale, 0 no effect, 100 complete control
How it was run: as §1

giant foxtail = test: Test C postemergence giant foxtail; assay type: in vivo, Setaria faberii; conditions: 0 to 100 scale, 0 no effect, 100 complete control
How it was run: as §1

hairy beggarticks = test: Test C postemergence hairy beggarticks; assay type: in vivo, Bidens pilosa; conditions: Rate 1120 g/ha, 0 to 100 scale, 0 no effect, 100 complete control
How it was run: as §1

black nightshade [1] = test: Test E black nightshade; assay type: in vivo, Solanum nigra; conditions: Postemergence; for Plant response rating, Blk nightshade: 0 to 100 scale
How it was run: (§2)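 Greenhouse test: for postemergence, foliar application at 1- to 4-leaf stage; compound in non-phytotoxic solvent with surfactant. Rating is visual, relative to untreated controls, about 21 to 28 days after treatment.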

field violet [2] = test: Test E field violet; assay type: in vivo, Viola arvensis; conditions: Postemergence; for Plant response rating, Field violet: 0 to 100 scale
How it was run: as §2

Russian thistle = test: Test E Russian thistle; assay type: in vivo, Salsola kali; conditions: Postemergence; for Plant response rating, Russian thistle: 0 to 100 scale
How it was run: as §2

wild buckwheat = test: Test E wild buckwheat; assay type: in vivo, Polygonum convolvulus; conditions: Postemergence; for Plant response rating, Wild buckwheat: 0 to 100 scale
Protocol: Compounds evaluated in this test were formulated in a non-phytotoxic solvent mixture which included a surfactant and applied to plants that were in the 1- to 4-leaf stage (postemergence application). A mixture of sandy loam soil and greenhouse potting mix in a 60:40 ratio was used for the postemergence test.
Plantings of these crops and weed species were adjusted to produce plants of appropriate size for the postemergence test. All plant species were grown using normal greenhouse practices. Crop and weed species include annual bluegrass (Poa annua), blackgrass (Alopecurus myosuroides), black nightshade (Solanum nigra), chickweed (Stellaria media), common poppy (Papaver rhoeas), deadnettle (Lamium amplexicaule), downy brome (Bromus tectorum), field violet (Viola arvensis), galium (Galium aparine), green foxtail (Setaria viridis), Italian ryegrass (Lolium multiflorum), jointed goatgrass (Aegilops cylindrica), kochia (Kochia scoparia), lambsquarters (Chenopodium album), littleseed canarygrass (Phalaris minor), rape (Brassica napus), redroot pigweed (Amaranthus retroflexus), Russian thistle (Salsola kali), scentless chamomile (Matricaria inodora), spring barley (Hordeum vulgare), sugar beet (Beta vulgaris), sunflower (Helianthus annuus), ivyleaf speedwell (Veronica hederaefolia), spring wheat (Triticum aestivum), winter wheat (Triticum aestivum), wild buckwheat (Polygonum convolvulus), wild mustard (Sinapis arvensis), wild oat (Avena fatua), windgrass (Apera spica-venti) and winter barley (Hordeum vulgare).
Treated plants and untreated controls were maintained in a greenhouse for approximately 21 to 28 days, after which all treated plants were compared to untreated controls and visually evaluated. […] A dash response (-) means no test result.

goosegrass = test: Test D goosegrass; assay type: in vivo, Eleusine indica; conditions: Postemergence, 0 to 100 scale
Johnson grass = test: Test D Johnson grass; assay type: in vivo, Sorghum halepense; conditions: Postemergence, 0 to 100 scale
large crabgrass = test: Test D large crabgrass; assay type: in vivo, Digitaria sanguinalis; conditions: Postemergence, 0 to 100 scale
black nightshade [3] = test: Test E black nightshade; assay type: in vivo, Solanum nigra; conditions: Preemergence
field violet [4] = test: Test E field violet; assay type: in vivo, Viola arvensis; conditions: Preemergence
galium = test: Test E galium; assay type: in vivo, Galium aparine; conditions: Preemergence
sugar beet = test: Test E sugar beet; assay type: in vivo, Beta vulgaris; conditions: Preemergence
sunflower = test: Test E sunflower; assay type: in vivo, Helianthus annuus; conditions: Preemergence
windgrass = test: Test E windgrass; assay type: in vivo, Apera spica-venti; conditions: Preemergence, Rate 125 g/ha; 0 to 100 scale (0 no effect, 100 complete control)
Green foxtail [5] = test: Test D green foxtail; assay type: in vivo; conditions: Postemergence, 0 to 100 scale, 0 no injury, 100 complete control
Green foxtail [6] = test: Test D green foxtail; assay type: in vivo; conditions: Postemergence, 0 to 100 scale, 0 no injury, 100 complete control; remark: listed apart in the source
[7] = Rate 125 g/ha, 0 is no effect, 100 is complete control
[8] = Rate 250 g/ha, 0 to 100 scale where 0 is no effect and 100 is complete control
[9] = Rate 500 g/ha, 0 is no effect, 100 is complete control
[10] = Rate 16 g/ha, 0 no injury, 100 complete control
[11] = Rate 32 g/ha, 0 no injury, 100 complete control
[12] = Rate 64 g/ha, 0 no injury, 100 complete control
[13] = Rate 125 g/ha, 0 no injury, 100 complete control
[14] = Rate 125 g/ha, 0 to 100 scale (0 no effect, 100 complete control)
[15] = Rate 500 g/ha, 0 to 100 scale where 0 is no effect and 100 is complete control

CC(C)N(C(=O)n1oc(=O)n(C2CC2)c1=O)c1ccc(F)cc1 [Compound 242]
Plant response rating Arrowleaf sida (arrowleaf sida; Rate 140 g/ha): 10 | Plant response rating Arrowleaf sida (arrowleaf sida; Rate 280 g/ha): 30 | Plant response rating Arrowleaf sida (arrowleaf sida; Rate 560 g/ha): 70 | Plant response rating Arrowleaf sida (arrowleaf sida; Rate 1120 g/ha): 90 | Plant response rating Cotton (cotton; Rate 140 g/ha): 0 | Plant response rating Cotton (cotton; Rate 280 g/ha): 20 | Plant response rating Cotton (cotton; Rate 560 g/ha): 45 | Plant response rating Cotton (cotton; Rate 1120 g/ha): 70 | Plant response rating Field bindweed (field bindweed; Rate 140 g/ha): 0 | Plant response rating Field bindweed (field bindweed; Rate 560 g/ha): 0 | Plant response rating Field bindweed (field bindweed; Rate 1120 g/ha): 0 | Plant response rating, Giant foxtail (giant foxtail; Rate 140 g/ha): 40 | Plant response rating, Giant foxtail (giant foxtail; Rate 280 g/ha): 60 | Plant response rating, Giant foxtail (giant foxtail; Rate 560 g/ha): 80 | Plant response rating, Giant foxtail (giant foxtail; Rate 1120 g/ha): 85 | Plant response rating H. beggarticks (hairy beggarticks): 90 | Plant response rating, Blk nightshade (black nightshade [1]; Rate 62 g/ha): 60 | Plant response rating, Blk nightshade (black nightshade [1]; [7]): 30 | Blk nightshade plant response rating (black nightshade [1]; [8]): 50 | Plant response rating, Blk nightshade (black nightshade [1]; [9]): 75 | Plant response rating, Field violet (field violet [2]; Rate 62 g/ha): 30 | Plant response rating, Field violet (field violet [2]; [7]): 60 | Field violet plant response rating (field violet [2]; [8]): 0 | Plant response rating, Field violet (field violet [2]; [9]): 40 | Plant response rating, Russian thistle (Russian thistle; Rate 62 g/ha): 50 | Plant response rating, Russian thistle (Russian thistle; [7]): 0 | Russian thistle plant response rating (Russian thistle; [8]): 0 | Plant response rating, Russian thistle (Russian thistle; [9]): 0 | Plant response rating, Wild buckwheat (wild buckwheat; Rate 62 g/ha): 50 | Plant response rating, Wild buckwheat (wild buckwheat; [7]): 10 | Wild buckwheat plant response rating (wild buckwheat; [8]): 10 | Plant response rating, Wild buckwheat (wild buckwheat; [9]): 0 | Plant response rating, Goosegrass (goosegrass; [10]): 90 | Plant response rating, Goosegrass (goosegrass; [11]): 100 | Plant response rating, Goosegrass (goosegrass; [12]): 100 | Plant response rating, Goosegrass (goosegrass; [13]): 100 | Plant response rating, Goosegrass (goosegrass; Rate 250 g/ha): 100 | Plant response rating, Johnsongrass (Johnson grass; [10]): 0 | Plant response rating, Johnsongrass (Johnson grass; [11]): 0 | Plant response rating, Johnsongrass (Johnson grass; [12]): 40 | Plant response rating, Johnsongrass (Johnson grass; [13]): 30 | Plant response rating, Johnsongrass (Johnson grass; Rate 250 g/ha): 90 | Plant response rating, Large crabgrass (large crabgrass; [10]): 0 | Plant response rating, Large crabgrass (large crabgrass; [11]): 100 | Plant response rating, Large crabgrass (large crabgrass; [12]): 100 | Plant response rating, Large crabgrass (large crabgrass; [13]): 100 | Plant response rating, Large crabgrass (large crabgrass; Rate 250 g/ha): 100 | Plant response rating, Blk nightshade (black nightshade [3]; [14]): 70 | Blk nightshade plant response rating (0 to 100 scale) (black nightshade [3]; Rate 250 g/ha): 95 | Plant response rating, Blk nightshade (black nightshade [3]; [15]): 95 | Plant response rating, Field violet (field violet [4]; [14]): 50 | Field violet plant response rating (0 to 100 scale) (field violet [4]; Rate 250 g/ha): 65 | Plant response rating, Field violet (field violet [4]; [15]): 100 | Plant response rating, Galium (galium; [14]): 0 | Galium plant response rating (0 to 100 scale) (galium; Rate 250 g/ha): 100 | Plant response rating, Galium (galium; [15]): 100 | Plant response rating, Sugar beet (sugar beet; [14]): 30 | Sugar beet plant response rating (0 to 100 scale) (sugar beet; Rate 250 g/ha): 50 | Plant response rating, Sugar beet (sugar beet; [15]): 65 | Plant response rating, Sunflower (sunflower; [14]): 55 | Sunflower plant response rating (0 to 100 scale) (sunflower; Rate 250 g/ha): 70 | Plant response rating, Sunflower (sunflower; [15]): 60 | Plant response rating, Windgrass (windgrass): 100 | Plant response rating, Green foxtail (Green foxtail [5]; Rate 16 g/ha): 30 | Plant response rating, Green foxtail (Green foxtail [5]; Rate 32 g/ha): 100 | Green foxtail plant response rating (Green foxtail [6]; Rate 64 g/ha): 100 | Green foxtail plant response rating (Green foxtail [6]; Rate 125 g/ha): 100

CC(C)N(C(=O)n1oc(=O)n(C2CCCCCC2)c1=O)c1ccc(F)cc1F [Compound 342]
Plant response rating, Goosegrass (goosegrass; [10]): 20 | Plant response rating, Goosegrass (goosegrass; [11]): 30 | Plant response rating, Goosegrass (goosegrass; [12]): 90 | Plant response rating, Goosegrass (goosegrass; [13]): 100 | Plant response rating, Goosegrass (goosegrass; Rate 250 g/ha): 100 | Plant response rating, Johnsongrass (Johnson grass; [10]): 0 | Plant response rating, Johnsongrass (Johnson grass; [11]): 0 | Plant response rating, Johnsongrass (Johnson grass; [12]): 0 | Plant response rating, Johnsongrass (Johnson grass; [13]): 0 | Plant response rating, Johnsongrass (Johnson grass; Rate 250 g/ha): 0 | Plant response rating, Large crabgrass (large crabgrass; [10]): 0 | Plant response rating, Large crabgrass (large crabgrass; [11]): 0 | Plant response rating, Large crabgrass (large crabgrass; [12]): 40 | Plant response rating, Large crabgrass (large crabgrass; [13]): 100 | Plant response rating, Large crabgrass (large crabgrass; Rate 250 g/ha): 100 | Plant response rating, Green foxtail (Green foxtail [5]; Rate 16 g/ha): 0 | Plant response rating, Green foxtail (Green foxtail [5]; Rate 32 g/ha): 0 | Green foxtail plant response rating (Green foxtail [6]; Rate 64 g/ha): 0 | Green foxtail plant response rating (Green foxtail [6]; Rate 125 g/ha): 60
